Where two headings read alike, the source gives them in different places.
What was measured:
tulip = assay: Tulip bulbs in peat watered with working solution: height, stem diameter, weights, root length, flowering, vigor (Example 1); assay type: in vivo; details: 80 mg/L, benzothiadiazole salt 30 mg/L; for Vigor [on a scale from 1 to 5]: 1 is a laying plant, 5 is a stiff plant; for Average plant height, initial height, first treatment: before 1st watering; for Average plant height, second treatment: before 2nd watering; for Average plant height, third treatment: before 3rd watering; for Average plant height, fourth treatment: before 4th watering; for Average plant height, 20 days after the 4th treatment: end of experiment
Experimental: Control plants were watered with distilled water. During the conducted experiment, plant height was measured before each treatment. Flowering length and plant vigor were also studied. After 20 days from the end of the last treatment, the fresh and dry weight of aboveground parts and roots, and root length were assessed.

broccoli = assay: Broccoli seedlings in pots sprayed: height, fresh and dry weight (Example 4); assay type: in vivo
Experimental: Broccoli seedling were planted into pots with peat substrate (P9 pots having 0.5 l). Pots were placed in greenhouse and cultivated for a 1 month. […] 2-fluoroethyl(trimethyl)ammonium benzo[1,2,3]thiadiazole-7-carboxylate; 3. 2-bromoethyl(trimethyl)ammonium benzo[1,2,3]thiadiazole-7-carboxylate; 4. 2-chloroethyl(trimethyl)ammonium benzo[1,2,3]thiadiazole-7-carboxylate; 5. 2-iodoethyl(trimethyl)ammonium benzo[1,2,3]thiadiazole-7-carboxylate used at a concentration of 30 mg/L and 6. 2-hydroxyethyl(trimethyl)ammonium 3-chlorosalicylate (tested also at a concentration of 50 mg/L); 7. 3-chlorosalicylate 2-fluoroethyl(trimethyl)ammonium; 8. 3-chlorosalicylate 2-bromoethyl(trimethyl)ammonium; 9. 3-chlorosalicylate 2-chloroethyl(trimethyl)ammonium; 10. 3-chlorosalicylate 2-iodoethyl(trimethyl)ammonium used at a concentration of 80 mg/L. Plants were sprayed with tested substances three times at 10-day intervals. Plants treated with water only were the untreated control. During the course of the experiment, the height of the plants was measured, and at the end the fresh and dry weight of the aboveground part was evaluated. The experiment was conducted in 4 repetitions with 5 plants in each (a total of 20 plants per each combination).

poinsettia = details: treated three times, 50 mg/L; not watered for 7 days; control plants wilted
Excerpt: The plants were then subjected to drought stress—they were not watered for 7 days.

[1] = tested on: tobacco mosaic virus (TMV); assay: Direct effect on TMV infectivity: virus incubated with substance, then Xanthi tobacco leaves infected (Example 21); assay type: in vivo; details: TMV about 3 μg/ml mixed 1:1 with substance 80 mg/L, 30 min; 5 days after infection; control 100
Experimental: Sodium 3-chlorosalicylate; 5. Potassium 3-chlorosalicylate; 6. Calcium 3-chlorosalicylate; 7. Magnesium 3-chlorosalicylate (concentration 80 mg/L), in a 1:1 ratio and incubated for 30 min at room temperature. The control variant consisted of TMV incubated in water. All virus suspensions were used to mechanically infect Xanthi tobacco leaves, whose reaction to infection is manifested in easily quantifiable local necrotic spots (hypersensitivity, local infection).
After 5 days, the area of leaf covered by necrotic spots compared to total leaf area was calculated for plants of all variants of treatment.

[2] = tested on: Pseudomonas syringae pv. Tomato; assay: Direct effect on bacterial infectivity (Example 22); assay type: in vivo; details: tobacco plant, 5 days after infection with solution of bacteria and test substance; control 100
Experimental: Proceeding as in example 21, Pseudomonas syringae pv. Tomato bacteria were tested and incubated in bacterial medium.

powdery mildew fungus [3] = assay: Direct effect on fungal infectivity (Example 23); assay type: in vivo; details: tobacco plant, 5 days after infection with solution of fungus and test substance; control 100
Experimental: Proceeding as in Example 21, the test was performed on the powdery mildew fungus, which was then incubated on the medium.

TMV = assay: Protection of tobacco against TMV infected 3 weeks after the last treatment (Example 27); assay type: in vivo; details: infected with TMV 3 weeks after the last treatment
Experimental: They proceeded as in Example 24, using substances 1-4 at concentrations of 10, 40 and 80 mg/L for treatment, with treated and control plants divided into 3 batches and their leaves infected with the virus 1, 2 and 3 weeks after the last treatment, respectively. […] A similar effect occurred with spraying.

[4] = tested on: Pseudomonas syringae pv. Tomato (Pst); details: 2 weeks after infection
[5] = tested on: Pseudomonas syringae pv. Tomato (Pst); assay: Protection of tomato against Pseudomonas syringae pv. Tomato by watering (Example 32); assay type: in vivo; details: 80 mg/L; watered twice; Pst 10^5; 2 weeks after infection
Experimental: Tomato plants, at the stage of the first pair of developed true leaves, were watered twice with a solution of substance 1-6 at a concentration of 80 mg/L, at a weekly interval. The control was tomato plants watered only with water. One week after the second treatment, a suspension of Pst bacteria at a concentration of 10^5 was spot-injected into the leaves using an insulin syringe (without a needle). The suspension was prepared from a two-day culture of Pst on solid medium. Protection against biotic stress was evaluated by the proliferation of bacteria in the leaves at the insertion site and the formation of a necrotic spot, compared to the control.

powdery mildew fungus [6] = assay type: in vivo, tomato; details: 80 mg/L, watered twice; 2 weeks after infection
Experimental: Tomato plants, at the stage of the first pair of developed true leaves, were watered twice with a solution of substance 1-32 at a concentration of 80 mg/L, at a weekly interval. The control was tomato plants watered only with water. […] The suspension was prepared from culture on solid medium. Protection against biotic stress was evaluated by comparing the area of leaves affected by infection.

powdery mildew fungus [7] = assay: Protection of tomato against powdery mildew by spraying (Example 35); assay type: in vivo, Lycopersicon Esculentum Mill tomato; details: 40 mg/l, sprayed twice; 2 weeks after pathogen inoculation
Experimental: […] The control was tomato plants watered only with water. […] The suspension was prepared from culture on solid medium. Protection against biotic stress was evaluated by comparing the area of leaves affected by infection.
Proceeded in the way as described in Example 34, with the difference that plants were sprayed and not watered.

[8] = Table 2, 20 days after last treatment
[9] = Table 3 (title: tulip bulbs / root system)
[10] = 3-chlorosalicylate 80 mg/L, benzothiadiazole salt 30 mg/L

SMILES	Average stem diameter at the end of the experiment 20 days after the 4th treatment (tulip)	Flowering length (tulip)	Root length (tulip)	Vigor [on a scale from 1 to 5] (tulip)	Average dry weight of the above-ground part (tulip; [8])	Average fresh weight of the above-ground part (tulip; [8])	Average dry weight of the above-ground part (tulip; [9])	Average fresh weight of the above-ground part (tulip; [9])	Average plant height, initial height, first treatment (tulip)	Average plant height, second treatment (tulip)	Average plant height, third treatment (tulip)	Average plant height, fourth treatment (tulip)	Average plant height, 20 days after the 4th treatment (tulip)	Average dry mass (broccoli; [10])	Average fresh mass (broccoli; [10])	Average plant height, initial height, before first treatment (broccoli; [10])	Average plant height, second treatment (broccoli; [10])	Average plant height, third treatment (broccoli; [10])	Plant height increase (broccoli; [10])	further results
C[N+](C)(C)CCO.O=C([O-])c1cccc2nnsc12	8.3 b mm	23 days	84.7 b mm	4.9 b	44.1 b g	435.7 b g	5.7 b g	61.0 b g	46.4 a mm	133.6 b mm	271.2 b mm	375.6 b mm	518.0 b mm	0.7 b g	7.8 c g	39.2 c mm	187.2 b mm	215.7 b mm	176.5 b mm	number of leaves developed (broccoli; FIG. 2, treated once, 5 mg/L, control plant developed 3 leaves): 4
C[N+](C)(C)CCO.O=C([O-])c1cccc(Cl)c1O [choline 3-chlorosalicylate]	8.1 b mm	23 days	84.3 b mm	4.8 b	41.8 b g	443.8 b g	5.6 b g	59.5 b g	45.7 a mm	130.5 b mm	257.4 b mm	369.1 b mm	510.9 b mm	0.6 b g	6.7 b g	36.5 a mm	146.0 a mm	179.5 a mm	143.0 a mm	Average dry mass (broccoli; 50 mg/L): 0.6 b g; Average fresh mass (broccoli; 50 mg/L): 6.8 b g; Average plant height, initial height, before first treatment (broccoli; 50 mg/L): 37.6 b mm; Average plant height, second treatment (broccoli; 50 mg/L): 146.4 a mm; Average plant height, third treatment (broccoli; 50 mg/L): 178.5 a mm; Plant height increase (broccoli; 50 mg/L): 140.9 a mm; drought effects on the plants (poinsettia): no drought effects were observed; % of necrotic spots [1]: 98%; % of necrotic spots [2]: 99%; % of necrotic spots (powdery mildew fungus [3]): 100%; % reduction in necrotic spots compared to control (TMV; 10 mg/L): 58%; % reduction in necrotic spots compared to control (TMV; 40 mg/L): 92%; % reduction in necrotic spots compared to control (TMV; 80 mg/L): 98%; % reduction in necrotic spots compared to control ([4]; 10 mg/L, watered twice, Pst 10^5): 65%; % reduction in necrotic spots compared to control ([4]; 40 mg/L, watered twice, Pst 10^5): 72%; % reduction in necrotic spots compared to control ([4]; 80 mg/L, bacterial cell concentration raised to about 10^6): 85%; % reduction in necrotic spots compared to control ([4]; 80 mg/L, watered twice, Pst 10^5): 89%; % reduction in necrotic spots compared to control [5]: 92%; % reduction in necrotic spots compared to control (powdery mildew fungus [6]): 95%; Reduction in necrotic spots (white patches) compared to control (powdery mildew fungus [7]): 72%

Reference: US20260041093A1, “Ionic Derivatives Of Aromatic Carboxylic Acid For Use As Plant Stimulants, Method For Stimulating Plants And Use Of These Derivatives For Manufacturing Compositions For Stimulating Plants” (FUNDACJA UNIWERSYTETU IM. ADAMA MICKIEWICZA W POZNANIU, priority 2022, published 2026)
